Experimental data as given in US8957063B2, “Amine and ether compounds which modulate the CB2 receptor” (priority 2008, dated 2015).

Molecular target: T1, human CB2R (Homo sapiens, UniProt P34972)
T1 construct: host or cells: CHO cells
Assay: CB2R mediated modulation of cAMP synthesis
Assay type: cell-based
Settings: not given
Experimental: B. CB2R Mediated Modulation of cAMP Synthesis:
Compounds of the invention were evaluated for their CB2 agonist or inverse agonistic activity in accordance with the following experimental method.
CHO cells expressing human CB2R (Euroscreen) were plated at a density of 5000 cells per well in 384 well plates and incubated overnight at 37° C. After removing the media, the cells were treated with test compounds diluted in stimulation buffer containing 1 mM IBMX, 0.25% BSA and 10 uM Forskolin. The assay was incubated for 30 minutes at 37° C. Cells were lysed and the cAMP concentration was measured using DiscoverX-XS cAMP kit, following the manufacturer's protocol. In this setting, agonists will decrease forskolin induced production of cAMP while inverse agonists will further increase forskolin induced production of cAMP. EC50 of agonists were calculated as follows. The maximal amount of cAMP produced by forskolin compared to the level of cAMP inhibited by 1 uM CP55940 is defined as 100%. The EC50 value of each test compound was determined as the concentration at which 50% of the forskolin-stimulated cAMP synthesis was inhibited. Data was analyzed using a four-parameter logistic model. (Model 205 of XLfit 4.0).

T1 sequence (P34972 whole entry): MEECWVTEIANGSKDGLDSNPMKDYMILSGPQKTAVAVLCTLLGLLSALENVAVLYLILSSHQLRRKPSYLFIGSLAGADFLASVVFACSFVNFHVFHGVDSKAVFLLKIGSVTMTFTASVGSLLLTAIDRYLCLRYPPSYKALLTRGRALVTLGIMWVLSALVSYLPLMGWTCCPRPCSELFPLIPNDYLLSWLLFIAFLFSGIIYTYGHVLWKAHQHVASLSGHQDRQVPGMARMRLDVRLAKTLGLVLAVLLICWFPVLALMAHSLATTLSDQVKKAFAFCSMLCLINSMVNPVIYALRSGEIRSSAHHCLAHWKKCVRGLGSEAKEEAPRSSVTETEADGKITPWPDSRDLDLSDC

Compound | EC50
CC(C)(Oc1ccc(Cl)cc1)C(=O)Nc1cc(C(C)(C)C)on1 [Example 1, N-(5-tert-Butyl-isoxazol-3-yl)-2-(4-chloro-phenoxy)-2-methyl-propionamide] | 2.4 nM
CC(C)(OCC1CCOCC1)C(=O)Nc1cc(C(C)(C)C)no1 [Example 2, N-(3-tert-Butyl-isoxazol-5-yl)-2-methyl-2-(tetrahydro-pyran-4-ylmethoxy)-propionamide] | 8.1 nM
CC(C)(OCC1CCOCC1)C(=O)Nc1cc(C(C)(C)C)on1 [Example 3, N-(5-tert-Butyl-isoxazol-3-yl)-2-methyl-2-(tetrahydro-pyran-4-ylmethoxy)-propionamide] | 50 nM
CC(C)(OC1CCOCC1)C(=O)Nc1cc(C(C)(C)C)no1 [Example 4, N-(3-tert-Butyl-isoxazol-5-yl)-2-methyl-2-(tetrahydro-pyran-4-yloxy)-propionamide] | 107 nM
CC(C)(OC1CCOCC1)C(=O)Nc1cc(C(C)(C)C)on1 [Example 5, N-(5-tert-Butyl-isoxazol-3-yl)-2-methyl-2-(tetrahydro-pyran-4-yloxy)-propionamide] | 123 nM
CC(C)(OCC1CCOCC1)C(=O)Nc1nc(-c2ccccc2)n[nH]1 [Example 6, 2-Methyl-N-(5-phenyl-2H-1,2,4-triazol-3-yl)-2-(tetrahydro-pyran-4-ylmethoxy)-propionamide] | 51 nM
CC(C)(OC1CCOCC1)C(=O)Nc1nc(-c2ccccc2)n[nH]1 [Example 7, 2-Methyl-N-(5-phenyl-2H-1,2,4-triazol-3-yl)-2-(tetrahydro-pyran-4-yloxy)-propionamide] | 235 nM
CC(C)(Oc1ccc(C(F)(F)F)cn1)C(=O)Nc1cc(C(C)(C)C)no1 [Example 8, N-(3-tert-Butyl-isoxazol-5-yl)-2-methyl-2-(5-trifluoromethyl-pyridin-2-yloxy)-propionamide] | 0.1 nM
COc1ccc(NC(C)(C)C(=O)Nc2cc(C(C)(C)C)on2)cc1 [Example 9, N-(5-tert-Butyl-isoxazol-3-yl)-2-(4-methoxy-phenylamino)-2-methyl-propionamide] | 8.7 nM
CC(C)NC(C)(C)C(=O)Nc1cc(C(C)(C)C)on1 [Example 10, N-(5-tert-Butyl-isoxazol-3-yl)-2-isopropylamino-2-methyl-propionamide] | 100 nM
CCC(C)NC(C)(C)C(=O)Nc1cc(C(C)(C)C)on1 (stereo not shown) [Example 11, 2-sec-Butylamino-N-(5-tert-butyl-isoxazol-3-yl)-2-methyl-propionamide] | 177 nM
CC(C)N(C)C(C)(C)C(=O)Nc1cc(C(C)(C)C)on1 [Example 12, N-(5-tert-Butyl-isoxazol-3-yl)-2-(isopropyl-methyl-amino)-2-methyl-propionamide] | 8.4 nM
CC(C)(C)c1cc(NC(=O)C(C)(C)N2CCOCC2)no1 [Example 13, N-(5-tert-Butyl-isoxazol-3-yl)-2-morpholin-4-yl-isobutyramide] | 45 nM
CC(C)(NC1CCCCC1)C(=O)Nc1cc(C(C)(C)C)on1 [Example 14, N-(5-tert-Butyl-isoxazol-3-yl)-2-cyclohexylamino-2-methyl-propionamide] | 9.5 nM
CCCCNC(C)(C)C(=O)Nc1cc(C(C)(C)C)on1 [Example 17, 2-Butylamino-N-(5-tert-butyl-isoxazol-3-yl)-2-methyl-propionamide] | 96 nM
CC1CCCN(C(C)(C)C(=O)Nc2cc(C(C)(C)C)on2)C1 (stereo not shown) [Example 19, N-(5-tert-Butyl-isoxazol-3-yl)-2-(3-methyl-piperidin-1-yl)-isobutyramide] | 0.34 nM
CC1CCCN1C(C)(C)C(=O)Nc1cc(C(C)(C)C)on1 (stereo not shown) [Example 20, N-(5-tert-Butyl-isoxazol-3-yl)-2-(2-methyl-pyrrolidin-1-yl)-isobutyramide] | 24 nM

Compound | EC50
CC1CCN(C(C)(C)C(=O)Nc2cc(C(C)(C)C)on2)CC1 [Example 21, N-(5-tert-Butyl-isoxazol-3-yl)-2-(4-methyl-piperidin-1-yl)-isobutyramide] | 2.6 nM
CC(C)(C)c1cc(NC(=O)C(C)(C)N2CCSCC2)no1 [Example 22, N-(5-tert-Butyl-isoxazol-3-yl)-2-thiomorpholin-4-yl-isobutyramide] | 9.9 nM
CC(C)(NC1CC1)C(=O)Nc1cc(C(C)(C)C)on1 [Example 23, N-(5-tert-Butyl-isoxazol-3-yl)-2-cyclopropylamino-2-methyl-propionamide] | 235 nM
CC1CCCCN1C(C)(C)C(=O)Nc1cc(C(C)(C)C)on1 (stereo not shown) [Example 24, N-(5-tert-Butyl-isoxazol-3-yl)-2-(2-methyl-piperidin-1-yl)-isobutyramide] | 1.2 nM
COC1CCN(C(C)(C)C(=O)Nc2cc(C(C)(C)C)on2)CC1 [Example 25, N-(5-tert-Butyl-isoxazol-3-yl)-2-(4-methoxy-piperidin-1-yl)-isobutyramide] | 0.21 nM
CC(C)(C)c1cc(NC(=O)C(C)(C)N2CCCCC2)no1 [Example 26, N-(5-tert-Butyl-isoxazol-3-yl)-2-piperidin-1-yl-isobutyramide] | 0.55 nM
CC(C)(C)c1cc(NC(=O)C(C)(C)N2CCCC2)no1 [Example 27, N-(5-tert-Butyl-isoxazol-3-yl)-2-pyrrolidin-1-yl-isobutyramide] | 23 nM
CC(C)(C)c1cc(NC(=O)C(C)(C)N2CCC(F)(F)CC2)no1 [Example 28, N-(5-tert-Butyl-isoxazol-3-yl)-2-(4,4-difluoro-piperidin-1-yl)-isobutyramide] | 24 nM
CC(C)(C(=O)Nc1ccc(C(F)(F)F)cn1)N1CCCCC1 [Example 32, 2-Piperidin-1-yl-N-(5-trifluoromethyl-pyridin-2-yl)-isobutyramide] | 127 nM
CC(C)(C)c1cc(NC(=O)C(C)(C)n2ccc3cc(Cl)ccc32)no1 [Example 35, N-(5-tert-Butyl-isoxazol-3-yl)-2-(5-chloro-indol-1-yl)-isobutyramide] | 0.22 nM
CC(C)(C)c1cc(NC(=O)C(C)(C)N2CCC3(CCCCC3)C2)on1 [Example 36, 2-(2-Aza-spiro[4.5]dec-2-yl)-N-(3-tert-butyl-isoxazol-5-yl)-isobutyramide] | 0.45 nM
CC(C)(NCC1CCOCC1)C(=O)Nc1cc(C(C)(C)C)no1 [Example 37] | 14 nM
CC(C)(NCC1CCOCC1)C(=O)Nc1cc(C(C)(C)C)on1 [Example 38, N-(5-tert-Butyl-isoxazol-3-yl)-2-methyl-2-[(tetrahydro-pyran-4-ylmethyl)-amino]-propionamide] | 125 nM
CC(C)(NC1CCOCC1)C(=O)Nc1cc(C(C)(C)C)no1 [Example 39, N-(3-tert-Butyl-isoxazol-5-yl)-2-methyl-2-(tetrahydro-pyran-4-ylamino)-propionamide] | 29 nM
CC(C)(NC1CCOCC1)C(=O)Nc1cc(C(C)(C)C)on1 [Example 40, N-(5-tert-Butyl-isoxazol-3-yl)-2-methyl-2-(tetrahydro-pyran-4-ylamino)-propionamide] | 35 nM
CC(C)(NCC1CCOCC1)C(=O)Nc1nc(-c2ccccc2)n[nH]1 [Example 41, 2-Methyl-N-(5-phenyl-2H-1,2,4-triazol-3-yl)-2-[(tetrahydro-pyran-4-ylmethyl)-amino]-propionamide] | 98 nM

Same assay, conditions: CHO cells expressing human CB2R; concentration at which 50% of the forskolin-stimulated cAMP synthesis was inhibited; 100% defined by 1 uM CP55940; read-out: CB2 EC50

Compound | EC50
CC(C)(NC1CCCCC1)C(=O)Nc1ccc(C(F)(F)F)cn1 [Example 29, 2-Cyclohexylamino-2-methyl-N-(5-trifluoromethyl-pyridin-2-yl)-propionamide] | 469 nM
